Measurements published in US20180291335A1, “MODIFIED POLYNUCLEOTIDES FOR ALTERING CELL PHENOTYPE” (ModernaTX, Inc., priority 2012, published 2018).

Key:
HeLa cells [1] = test: Luciferase in HeLa cells using a combination of modifications; format: cell-based, human; conditions: 83 ng luciferase modified RNA, 18 to 22 hours
Experimental: To evaluate using of 2′fluoro-modified mRNA in combination with other modification a series of mRNA were transcribed using either wild-type T7 polymerase (non-fluoro-containing compounds) or using mutant T7 polymerases (fluyoro-containing compounds) as described in Example 86. All modified mRNA were tested by in vitro transfection in HeLa cells.
(§1) The day before transfection, 20,000 HeLa cells (ATCC no. CCL-2; Manassas, Va.) were harvested by treatment with Trypsin-EDTA solution (LifeTechnologies, Grand Island, N.Y.) and seeded in a total volume of 100 ul EMEM medium (supplemented with 10% FCS and 1× Glutamax) per well in a 96-well cell culture plate (Corning, Manassas, Va.). The cells were grown at […] in 5% CO2 atmosphere overnight. […] Lipofectamine 2000 (LifeTechnologies, Grand Island, N.Y.) was used as transfection reagent and 0.2 ul were diluted in 10 ul final volume of OPTI-MEM. After 5 minutes of incubation at room temperature, both solutions were combined and incubated an additional 15 minute at room temperature. Then the 20 ul combined solution was added to the 100 ul cell culture medium containing the HeLa cells and incubated at room temperature.
(§2) After 18 to 22 hours of incubation cells expressing luciferase were lysed with 100 ul of Passive Lysis Buffer (Promega, Madison, Wis.) according to manufacturer instructions. Aliquots of the lysates were transferred to white opaque polystyrene 96-well plates (Corning, Manassas, Va.) and combined with 100 ul complete luciferase assay solution (Promega, Madison, Wis.). The lysate volumes were adjusted or diluted until no more than 2 mio relative light units (RLU) per well were detected for the strongest signal producing samples and the RLUs for each chemistry tested are shown in Table 26. The plate reader was a BioTek Synergy H1 (BioTek, Winooski, Vt.). The background signal of the plates without reagent was about 200 relative light units per well.

[2] = system: Rabbit Reticulocyte Lysate; test: In vitro screening in rabbit reticulocyte lysates, luciferase mRNA translation; format: biochemical; conditions: 250 ng luciferase mRNA, 60 minutes, 30° C.
Experimental: The diluted luciferase was added to 40 ul of freshly prepared Rabbit Reticulocyte Lysate and the in vitro translation reaction was done in a standard 1.5 mL polypropylene reaction tube (Thermo Fisher Scientific, Waltham, Mass.) at 30° C. in a dry heating block. The translation assay was done with the Rabbit Reticulocyte Lysate (nuclease-treated) kit (Promega, Madison, Wis.) according to the manufacturer's instructions. The reaction buffer was supplemented with a one-to-one blend of provided amino acid stock solutions devoid of either Leucine or Methionine resulting in a reaction mix containing sufficient amounts of both amino acids to allow effective in vitro translation.
After 60 minutes of incubation, the reaction was stopped by placing the reaction tubes on ice. Aliquots of the in vitro translation reaction containing luciferase modified RNA were transferred to white opaque polystyrene 96-well plates (Corning, Manassas, Va.) and combined with 100 ul complete luciferase assay solution (Promega, Madison, Wis.). The volumes of the in vitro translation reactions were adjusted or diluted until no more than 2 mio relative light units (RLUs) per well were detected for the strongest signal producing samples and the RLUs for each chemistry tested are shown in Table 20. The plate reader was a BioTek Synergy H1 (BioTek, Winooski, Vt.). The background signal of the plates without reagent was about 200 relative light units per well.

HeLa cells [3] = test: In vitro screening in HeLa cells, luciferase modified RNA; format: cell-based, human; conditions: HeLa cells, 83 ng luciferase modified RNA, 18 to 22 hours
Experimental: as §1
as §2, with “19.” for “26.”

[4] = system: tumor necrosis factor-alpha (TNF-alpha); test: 2′Fluoro chemistries in PBMC: TNF-alpha production by ELISA; format: cell-based, human; conditions: G-CSF modified mRNA
[5] = system: interferon-alpha (IFN-alpha); test: 2′Fluoro chemistries in PBMC: IFN-alpha production by ELISA; format: cell-based, human; conditions: G-CSF modified mRNA
HeLa cells [6] = test: G-CSF modified mRNA transfected in HeLa cells, G-CSF ELISA; format: cell-based, human; conditions: HeLa cells, combination chemistries, ELISA
Experimental: To assess the activity of all our different chemical modifications in the context of a second open reading frame, we replicated experiments previously conducted using luciferase mRNA, with human G-CSF mRNA. […] The mutant T7 polymerase was obtained commercially (Durascribe® T7 Transcription kit (Cat. No. DS010925) (Epicentre®, Madison, Wis.).
The modified RNA in Tables 27 and 28 were transfected in vitro in HeLa cells or added to rabbit reticulysates (250 ng of modified mRNA) as indicated. […] In Table 27, “NT” means not tested.

2′Fluoroguanine/5-methylcytidine/N1 methylpsuedouridine: Luciferase mRNA (SEQ ID NO: 409) modified with the named combination
RLU (HeLa cells [1]): 235 RLU

2′Fluoroguanine/N1-methylpsuedouridine: Luciferase mRNA (SEQ ID NO: 409) modified with the named combination
RLU (HeLa cells [1]): 247 RLU

2′Fluoroguanine/pseudouridine: Luciferase mRNA (SEQ ID NO: 409) modified with the named combination
RLU (HeLa cells [1]): 218 RLU

5-methylcytosine/pseudouridine, test A1: Luciferase mRNA (SEQ ID NO: 409) modified with 5-methylcytosine and pseudouridine; repeated tests
RLU [2]: 349,398 RLU | RLU ([2]; test A2): 558,779 RLU | RLU ([2]; test A3): 413,535 RLU | RLU ([2]; test B1): 454,662 RLU | RLU ([2]; test B2): 487,805 RLU | RLU (HeLa cells [3]): 48,659 RLU | RLU (HeLa cells [3]; test A2): 295,824 RLU | RLU (HeLa cells [3]; test A3): 438,831 RLU | RLU (HeLa cells [3]; test B1): 317,744 RLU | RLU (HeLa cells [3]; test B2): 481,477 RLU | RLU (HeLa cells [1]; listed as 5-methylcytidine/pseudouridine, test A): 13,833 RLU | RLU (HeLa cells [1]; listed as 5-methylcytidine/pseudouridine, test B): 115,401 RLU

CCOCc1nc2c(N)nc3ccccc3c2n1CC(C)(C)O [Compound R-848, reference compound]
TNF-alpha: 2 Donor Average [4]: 8,235 pg/ml | IFN-alpha: 3 Donor Average [5]: 45 pg/mL

B1: 5-methylcytidine/5-bromouridine: G-CSF mRNA (SEQ ID NO: 408) fully modified with the named combination (nucleic acid)
chain: GGGAAAUAAGAGAGAAAAGAAGAGUAAGAAGAAAUAUAAGAGCCACCAUGGCCGGUCCCGCGACCCAAAGCCCCAUGAAACUUAUGGCCCUGCAGUUGCUGCUUUGGCACUCGGCCCUCUGGACAGUCCAAGAAGCGACUCCUCUCGGACCUGCCUCAUCGUUGCCGCAGUCAUUCCUUUUGAAGUGUCUGGAGCAGGUGCGAAAGAUUCAGGGCGAUGGAGCCGCACUCCAAGAGAAGCUCUGCGCGACAUACAAACUUUGCCAUCCCGAGGAGCUCGUACUGCUCGGGCACAGCUUGGGGAUUCCCUGGGCUCCUCUCUCGUCCUGUCCGUCGCAGGCUUUGCAGUUGGCAGGGUGCCUUUCCCAGCUCCACUCCGGUUUGUUCUUGUAUCAGGGACUGCUGCAAGCCCUUGAGGGAAUCUCGCCAGAAUUGGGCCCGACGCUGGACACGUUGCAGCUCGACGUGGCGGAUUUCGCAACAACCAUCUGGCAGCAGAUGGAGGAACUGGGGAUGGCACCCGCGCUGCAGCCCACGCAGGGGGCAAUGCCGGCCUUUGCGUCCGCGUUUCAGCGCAGGGCGGGUGGAGUCCUCGUAGCGAGCCACCUUCAAUCAUUUUUGGAAGUCUCGUACCGGGUGCUGAGACAUCUUGCGCAGCCGUGAAGCGCUGCCUUCUGCGGGGCUUGCCUUCUGGCCAUGCCCUUCUUCUCUCCCUUGCACCUGUACCUCUUGGUCUUUGAAUAAAGCCUGAGUAGGAAG
modifications: 5-methylcytidine/5-bromouridine modified; Description of Artificial Sequence: Synthetic Transcript Sequence
TNF-alpha: 2 Donor Average [4]: 270 pg/mL | IFN-alpha: 3 Donor Average [5]: 0 pg/mL | G-CSF protein (pg/ml) HeLa cells (HeLa cells [6]): 48,864 pg/ml

B2: N4-acetylcytidine/2-thiouridine: G-CSF mRNA (SEQ ID NO: 408) fully modified with the named combination (nucleic acid)
chain: B1 chain
modifications: N4-acetylcytidine/2-thiouridine modified; Description of Artificial Sequence: Synthetic Transcript Sequence
TNF-alpha: 2 Donor Average [4]: 285 pg/mL | IFN-alpha: 3 Donor Average [5]: 0 pg/mL | G-CSF protein (pg/ml) HeLa cells (HeLa cells [6]): 46,136 pg/ml

B3: N4-acetylcytidine/5-bromouridine: G-CSF mRNA (SEQ ID NO: 408) fully modified with the named combination (nucleic acid)
chain: B1 chain
modifications: N4-acetylcytidine/5-bromouridine modified; Description of Artificial Sequence: Synthetic Transcript Sequence
TNF-alpha: 2 Donor Average [4]: 403 pg/mL | IFN-alpha: 3 Donor Average [5]: 44 pg/mL | G-CSF protein (pg/ml) HeLa cells (HeLa cells [6]): 211,591 pg/ml
